According to paper PMC11822212, “High-throughput screening identifies Aurora kinase B as a critical therapeutic target for Merkel cell carcinoma” (Nature Communications, 2025):
Structures can show the parent of a compound that is named as a salt. Where two headings read alike, the source gives them in different places.

Key:
[1] = tested on: WAGA cells (VP-MCC); test: qHTS cell viability (CellTiter-Glo, 72 h; primary and follow-up small molecule screen); assay type: cell-based, human; details: for Area under the dose-response curve (AUC) WAGA: primary high-throughput screen, viability 72 h, n = 1
[2] = tested on: MKL-2 cells (VP-MCC); test: as above; assay type: cell-based, human; details: for Area under the dose-response curve (AUC) MKL-2: primary high-throughput screen, viability 72 h, n = 1
[3] = tested on: UISO cells (VN-MCC); test: as above; assay type: cell-based, human; details: for Area under the dose-response curve (AUC) UISO: primary high-throughput screen, viability 72 h, n = 1
[4] = tested on: NIH-3T3 cells; test: qHTS cell viability (CellTiter-Glo, 72 h; primary screen), control cell line; assay type: cell-based, mouse; details: for Area under the dose-response curve (AUC) NIH3T3: primary high-throughput screen, viability 72 h, n = 1
[5] = tested on: CRL-7250 cells; test: as above; assay type: cell-based; details: for Area under the dose-response curve (AUC) CRL7250: primary high-throughput screen, viability 72 h, n = 1
[6] = tested on: MCC13 cells (VN-MCC); test: qHTS cell viability (CellTiter-Glo, 72 h; primary and follow-up small molecule screen); assay type: cell-based, human; details: for Area under the dose-response curve (AUC) MCC13: primary high-throughput screen, viability 72 h, n = 1
[7] = tested on: MCC26 cells (VN-MCC); test: as above; assay type: cell-based, human; details: for Area under the dose-response curve (AUC) MCC26: primary high-throughput screen, viability 72 h, n = 1
[8] = tested on: MKL-1 cells (VP-MCC); test: as above; assay type: cell-based, human; details: for Area under the dose-response curve (AUC) MKL-1: primary high-throughput screen, viability 72 h, n = 1
[9] = tested on: HEK293T cells; test: qHTS cell viability (CellTiter-Glo, 72 h; primary screen), control cell line; assay type: cell-based, human; details: for Area under the dose-response curve (AUC) HEK293T: primary high-throughput screen, viability 72 h, n = 1
[10] = tested on: HACAT cells; test: as above; assay type: cell-based, human; details: for Area under the dose-response curve (AUC) HACAT: primary high-throughput screen, viability 72 h, n = 1
[11] = area under the dose-response curve, WAGA cells, AUC<450 = reduced viability
[12] = area under the dose-response curve, MKL-2 cells, AUC<450 = reduced viability
[13] = area under the dose-response curve, UISO cells, AUC<450 = reduced viability
[14] = area under the dose-response curve, NIH3T3 control cells, AUC<450 = reduced viability
[15] = area under the dose-response curve, CRL7250 control cells, AUC<450 = reduced viability
[16] = area under the dose-response curve, MCC13 cells, AUC<450 = reduced viability
[17] = area under the dose-response curve, MCC26 cells, AUC<450 = reduced viability
[18] = area under the dose-response curve, MKL-1 cells, AUC<450 = reduced viability
[19] = area under the dose-response curve, HEK293T control cells, AUC<450 = reduced viability
[20] = area under the dose-response curve, HACAT control cells, AUC<450 = reduced viability

SMILES | WAGA_AUC [1] | MKL2_AUC [2] | UISO_AUC [3] | NIH3T3_AUC [4] | CRL7250_AUC [5] | MCC13_AUC [6] | MCC26_AUC [7] | MKL1_AUC [8] | HEK293T_AUC [9] | HACAT_AUC [10] | WAGA_AUC [1, 11] | MKL2_AUC [2, 12] | UISO_AUC [3, 13] | NIH3T3_AUC [4, 14] | CRL7250_AUC [5, 15] | MCC13_AUC [6, 16] | MCC26_AUC [7, 17] | MKL1_AUC [8, 18] | HEK293T_AUC [9, 19] | HACAT_AUC [10, 20] | other results
COC[C@H]1OC(=O)c2coc3c2[C@@]1(C)C1=C(C3=O)[C@@H]2CC[C@H](O)[C@@]2(C)C[C@H]1OC(C)=O [17_-hydroxy Wortmannin] | 431.369 | 431.749 | 484.969 | 465.601 | 461.56 | 505.746 | 506.622 | 433.03 | 476.067 | 466.176 | – | – | – | – | – | – | – | – | – | – | Area under the dose-response curve (AUC) WAGA Replicate 1 [1]: 390.4; Area under the dose-response curve (AUC) WAGA Replicate 2 [1]: 444.0; Area under the dose-response curve (AUC) WAGA Replicate 3 [1]: 465.6; Area under the dose-response curve (AUC) MKL-2 Replicate 1 [2]: 408.4; Area under the dose-response curve (AUC) MKL-2 Replicate 2 [2]: 434.1; Area under the dose-response curve (AUC) MKL-2 Replicate 3 [2]: 442.8; Area under the dose-response curve (AUC) UISO Replicate 1 [3]: 419.6; Area under the dose-response curve (AUC) UISO Replicate 2 [3]: 426.0; Area under the dose-response curve (AUC) UISO Replicate 3 [3]: 431.4; Area under the dose-response curve (AUC) MCC13 Replicate 1 [6]: 446.4; Area under the dose-response curve (AUC) MCC13 Replicate 2 [6]: 414.9; Area under the dose-response curve (AUC) MCC13 Replicate 3 [6]: 433.1; Area under the dose-response curve (AUC) MCC26 Replicate 1 [7]: 392.5; Area under the dose-response curve (AUC) MCC26 Replicate 2 [7]: 398.0; Area under the dose-response curve (AUC) MCC26 Replicate 3 [7]: 386.6; Area under the dose-response curve (AUC) MKL-1 Replicate 1 [8]: 417.4; Area under the dose-response curve (AUC) MKL-1 Replicate 2 [8]: 456.9; Area under the dose-response curve (AUC) MKL-1 Replicate 3 [8]: 460.6
CN1CCN(CCCN2c3ccccc3Sc3ccc(C(F)(F)F)cc32)CC1 [Trifluoperazine hydrochloride, reference compound] | – | – | – | – | – | – | – | – | – | – | – | – | – | – | – | – | – | – | – | – | Area under the dose-response curve (AUC) WAGA [1]: 495.2; Area under the dose-response curve (AUC) MKL-2 [2]: 488.7; Area under the dose-response curve (AUC) UISO [3]: 500.3; Area under the dose-response curve (AUC) NIH3T3 [4]: 467.6; Area under the dose-response curve (AUC) CRL7250 [5]: 412.6; Area under the dose-response curve (AUC) MCC13 [6]: 486.4; Area under the dose-response curve (AUC) MCC26 [7]: 481.8; Area under the dose-response curve (AUC) MKL-1 [8]: 497.8; Area under the dose-response curve (AUC) HEK293T [9]: 471.8; Area under the dose-response curve (AUC) HACAT [10]: 455.5
CC(C)(C)NCC(O)c1cc(O)cc(O)c1.CC(C)(C)NCC(O)c1cc(O)cc(O)c1.O=S(=O)(O)O (centres unmarked) [Terbutaline hemisulfate] | – | – | – | – | – | – | – | – | – | – | 449.356 | 440.746 | 427.113 | 463.76 | 479.05 | 446.456 | 430.481 | 438.666 | 465.552 | 496.73 | –
COc1cc(C(=O)NCc2ccc(OCCN(C)C)cc2)cc(OC)c1OC [Trimethobenzamide hydrochloride] | – | – | – | – | – | – | – | – | – | – | 468.296 | 453.926 | 426.826 | 459.509 | 477.417 | 447.793 | 425.084 | 452.093 | 452.936 | 491.547 | –
CS(=O)(=O)Oc1ccc2c(NC(N)=O)c(C(=O)c3ccc(Cl)cc3Cl)oc2c1 [Lirimilast] | 295.464 | 353.495 | 491.115 | 472.494 | 477.656 | 475.91 | 450.578 | 416.805 | 473.552 | 475.167 | – | – | – | – | – | – | – | – | – | – | –
CCOC(=O)[C@H](CCc1ccccc1)N[C@@H](C)C(=O)N1CCC[C@H]1C(=O)O [Enalapril maleate] | – | – | – | – | – | – | – | – | – | – | 389.514 | 341.505 | 510.45 | 481.903 | 468.406 | 497.832 | 486.615 | 398.754 | 479.159 | 461.773 | –
Cc1nc2c([nH]1)c(=O)n(C)c(=O)n2Cc1ccco1 [Furafylline] | – | – | – | – | – | – | – | – | – | – | 445.554 | 443.745 | 447.137 | 485.732 | 466.658 | 444.774 | 399.611 | – | 497.799 | 476.414 | MKL1_AUC ([8]; {}): 414.343
CCOc1cc(N)c(Cl)cc1C(=O)NCC1CN(Cc2ccc(F)cc2)CCO1 (centres unmarked) [Mosapride citrate] | – | – | – | – | – | – | – | – | – | – | 443.892 | 377.067 | 489.758 | 470.089 | 480.736 | 479.818 | 466.055 | 438.77 | 457.079 | 473.779 | –
O=C(O)/C=C(\CC(=O)O)C(=O)O [trans-Aconitic acid] | – | – | – | – | – | – | – | – | – | – | 441.902 | 378.194 | 494.852 | 503.673 | 486.622 | 525.202 | 496.696 | 435.147 | 467.145 | 490.879 | –
c1cc(-c2sc(-c3ccncc3)c(-c3ccncc3)c2-c2ccncc2)ccn1 [NSC-75503, reference compound] | – | – | – | – | – | – | – | – | – | – | – | – | – | – | – | – | – | – | – | – | Area under the dose-response curve (AUC) WAGA [1]: 489.4; Area under the dose-response curve (AUC) MKL-2 [2]: 550.2; Area under the dose-response curve (AUC) UISO [3]: 456.0; Area under the dose-response curve (AUC) NIH3T3 [4]: 481.5; Area under the dose-response curve (AUC) CRL7250 [5]: 461.0; Area under the dose-response curve (AUC) MCC13 [6]: 492.9; Area under the dose-response curve (AUC) MCC26 [7]: 468.9; Area under the dose-response curve (AUC) MKL-1 [8]: 478.1; Area under the dose-response curve (AUC) HEK293T [9]: 450.5; Area under the dose-response curve (AUC) HACAT [10]: 453.3
C[N+]1(CC2COC(c3ccccc3)(C3CCCCC3)O2)CCCCC1 (centres unmarked) [Oxapium iodide] | – | – | – | – | – | – | – | – | – | – | 422.785 | 426.411 | 505.529 | 474.75 | 483.841 | 501.634 | 482.458 | 436.858 | 460.835 | 474.271 | –
CC(C)CN(C[C@@H](O)[C@H](Cc1ccccc1)NC(=O)O[C@H]1CO[C@H]2OCC[C@H]21)S(=O)(=O)c1ccc(N)cc1 [Darunavir] | 433.192 | 413.603 | 505.158 | 481.353 | 469.055 | 471.675 | 501.486 | 420.268 | 472.283 | 465.16 | – | – | – | – | – | – | – | – | – | – | –
Cc1ncc(CNC(=O)N(CCCl)N=O)c(N)n1 [Nimustine] | 465.895 | 504.085 | 443.983 | 486.849 | 491.102 | 434.577 | 438.698 | 478.611 | 481.182 | 461.645 | – | – | – | – | – | – | – | – | – | – | –
O=c1cccc2n1C[C@@H]1CNC[C@H]2C1 [Cytisine] | 346.525 | 398.634 | 498.318 | 477.468 | 469.524 | 474.327 | 479.664 | 435.746 | 476.432 | 465.853 | – | – | – | – | – | – | – | – | – | – | Area under the dose-response curve (AUC) WAGA Replicate 1 [1]: 496.1; Area under the dose-response curve (AUC) WAGA Replicate 2 [1]: 525.9; Area under the dose-response curve (AUC) WAGA Replicate 3 [1]: 499.6; Area under the dose-response curve (AUC) MKL-2 Replicate 1 [2]: 465.6; Area under the dose-response curve (AUC) MKL-2 Replicate 2 [2]: 500.2; Area under the dose-response curve (AUC) MKL-2 Replicate 3 [2]: 495.6; Area under the dose-response curve (AUC) UISO Replicate 1 [3]: 456.3; Area under the dose-response curve (AUC) UISO Replicate 2 [3]: 469.0; Area under the dose-response curve (AUC) UISO Replicate 3 [3]: 502.6; Area under the dose-response curve (AUC) MCC13 Replicate 1 [6]: 466.2; Area under the dose-response curve (AUC) MCC13 Replicate 2 [6]: 472.1; Area under the dose-response curve (AUC) MCC13 Replicate 3 [6]: 495.9; Area under the dose-response curve (AUC) MCC26 Replicate 1 [7]: 425.8; Area under the dose-response curve (AUC) MCC26 Replicate 2 [7]: 426.1; Area under the dose-response curve (AUC) MCC26 Replicate 3 [7]: 461.0; Area under the dose-response curve (AUC) MKL-1 Replicate 1 [8]: 469.7; Area under the dose-response curve (AUC) MKL-1 Replicate 2 [8]: 497.8; Area under the dose-response curve (AUC) MKL-1 Replicate 3 [8]: 481.7
